Measurements from patent US11312688B2, “Pyrazole compound” (Sumitomo Dainippon Pharma Co., Ltd., priority 2011, dated 2022).
Read-outs that look alike come from different tables or passages of the source.

Legend:
[1] = biological target: human serotonin transporter (h-SERT) (Homo sapiens (Human), UniProt P31645); assay: [3H] citalopram binding assay to evaluate human serotonin reuptake inhibitory action (h-SERT binding assay); details: h-SERT binding inhibition constant Ki, Test Ex. 1
Procedure: Citalopram Binding Assay to Evaluate Human Serotonin Reuptake Inhibitory Action
In the experiment, human serotonin transporter (h-SERT) was expressed in CHO cells (h-SERT/CHO). The cells were incubated with F12 containing 10% FCS, 500 μg/mL Geneticin and 100 U/mL penicillin-100 μg/mL streptmycin (all manufactured by Sigma Aldrich) in an incubator containing 5% CO2; detached and collected using a SERT buffer [50 mmol/L Tris-HCl comprising 120 mmol/L NaCl and 5 mmol/L KCl (pH=7.4)]; homogenized with a homogenizer manufactured by Teflon (trademark); and then centrifuged (50,000×g, 30 min, 4° C.). The precipitate was suspended again in the appropriate amount of SERT buffer (to give a membrane preparation), and stored at −80° C. until used. The amount of protein in the membrane preparation was assayed by Dye Reagent Concentrate (manufactured by BIO-RAD) using bovine serum albumin (manufactured by Sigma Aldrich) as a standard.
The [^3H] citalopram binding was measured according to the method disclosed in Owens M. J. et al., J. Pharm. […] The glass fiber filter was washed twice with 250 HL of the SERT buffer, placed in a plastic vial containing 4 mL of liquid scintillator (ACS-II, manufactured by Amersham) or Ecoscint A (manufactured by National Diagnostics), and the remaining radioactivity on the filter paper was assayed with a liquid scintillation counter.

[2] = biological target: T1, human serotonin 2C receptor (h-5-HT2C) (Homo sapiens (Human), UniProt P28335); assay: [3H] mesulergine binding assay to evaluate affinity for human 5-HT2C receptor; details: Test Ex. 2, h-5-HT2C/CHO membrane preparation, read-out: 5-HT2C receptor binding inhibition constant Ki
T1 sequence (P28335 whole entry, looked up): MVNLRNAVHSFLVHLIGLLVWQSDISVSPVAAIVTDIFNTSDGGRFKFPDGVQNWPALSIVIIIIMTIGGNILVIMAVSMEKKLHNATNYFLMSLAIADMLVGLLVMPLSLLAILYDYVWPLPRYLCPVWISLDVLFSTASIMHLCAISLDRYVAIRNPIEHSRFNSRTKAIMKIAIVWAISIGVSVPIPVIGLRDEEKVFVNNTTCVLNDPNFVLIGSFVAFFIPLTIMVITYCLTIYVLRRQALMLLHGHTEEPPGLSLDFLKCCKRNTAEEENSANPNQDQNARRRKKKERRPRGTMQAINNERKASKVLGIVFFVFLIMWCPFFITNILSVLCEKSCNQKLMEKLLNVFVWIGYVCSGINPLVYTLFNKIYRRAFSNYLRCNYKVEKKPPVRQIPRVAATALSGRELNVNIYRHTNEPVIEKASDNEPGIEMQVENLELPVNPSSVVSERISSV
Procedure: Mesulergine Binding Assay to Evaluate Affinity for Human 5-HT2C Receptor
Preparation of the Cells and Membrane Preparations
In the experiment, human serotonin 2C receptor (h-5-HT2C) was expressed in CHO cells (h-5-HT2C/CHO). The cells were incubated with UltraCHO Lipuid (trademark) (manufactured by BioWhitakker) containing 1% FBS, 400 μg/mL Geneticin, 100 U/mL penicillin-100 μg/mL streptomycin (all manufactured by Sigma Aldrich) and 250 μg/mL Zeosin (manufactured by InvivoGen) in an incubator containing 5% CO2; detached and collected using 50 mmol/L Tris-HCl (pH=7.4); homogenized with a homogenizer manufactured by Teflon (trademark); and then centrifuged (48,000×g, 25 min, 4° C.). […]
A solution of 200 μL in total was prepared by mixing 50 μL of [^3H] mesulergine (manufactured by GE Healthcare) diluted with 50 mmol/L Tris-HCl (pH=7.4) (final concentration: about 2 nmol/L), 149 μL of the h-5-HT2C/CHO membrane preparation (protein amount: 20 μg/well), and 1 μL of the test drug dissolved in dimethylsulfoxide. […] The glass fiber filter was washed twice with 250 μL of 50 mmol/L Tris-HCl (pH=7.4), placed in a plastic vial containing 4 mL of liquid scintillator (ACS-II, manufactured by Amersham) or Ecoscint A (manufactured by National Diagnostics), and the remaining radioactivity on the filter paper was assayed with a liquid scintillation counter. […]

[3] = biological target: T1, human serotonin 2C receptor (h-5-HT2C); assay: 5-HT2C receptor agonistic action assay (FLIPR Calcium 4, h-5-HT2C/CHO cells; agonistic / inverse agonistic action); format: cell-based
Procedure: 3-1. The Cells and Inoculation Thereof
In the experiment, human serotonin 2C receptor (h-5-HT2C) was expressed in CHO cells (h-5-HT2C/CHO). The cells were incubated with UltraCHO Lipuid (trademark) (manufactured by BioWhitakker) containing 1% FBS, 400 μg/mL Geneticin, 100 U/mL penicillin-100 μg/mL streptomycin (all manufactured by Sigma Aldrich) and 250 μg/mL Zeosin (manufactured by InvivoGen) in an incubator containing 5% CO2. On the day before using the cells, they were detached and collected using 250 μg/mL Trypsin solution (manufactured by Nacalai Tesque), then inoculated in a 96 well flat clear bottom black polystyrene TC-treated microplates (manufactured by Corning) at 40000 cells/well/60 μL in an incubator containing 5% CO2 for 16 hours to 24 hours.
3-2. 5-HT2C Receptor Agonistic Action Assay
The 5-HT2C receptor agonistic action was evaluated with FLIPR Calcium 4 Assay kit (manufactured by Molecular Devices). In specific, to the cells inoculated in the plate were added Component A of FLIPR Calcium 4 Assay kit dissolved in 100 mL of HHBP buffer (1×Hanks buffer, 20 mmol/L HEPES, both manufactured by Gibco) at an amount of 40 μL/well, and the cells were incubated in an incubator containing 5% CO2 for 1 hour. Then, the cells were set in FLIPR TETRA (trademark) (manufactured by Molecular Devices), to the cells was added the test material diluted with HHBP buffer, 2.5 mmol/L Probenecid (manufactured by Sigma) (concentration after dilution: 10 μmol/L) at an amount of 20 μL/well, and the fluorescence was measured. Then, in order to evaluate the antagonistic action of the test material, 20 μL/well of 5-HT solution (manufactured by Sigma, final concentration: 0.1 nmol/L) was further added to the cells, and the fluorescence was measured.
The 5-HT2C receptor agonistic action of each test material was calculated as a rate of fluorescence enhancement wherein 100% was defined as a value when the cells were given 10 μmol/L 5-HT. Furthermore, the 5-HT2C receptor inverse agonistic action was calculated as a rate of fluorescence decay wherein −100% was defined as a value when the cells were given 10 μmol/L SB206553 (manufactured by Sigma Aldrich). A lower value of the 5-HT2C receptor agonistic action of the test material means that the material has a higher antagonistic action. In particular, when the value of the 5-HT2C receptor agonistic action of the test material is below 0%, the material has an inverse agonistic action for 5-HT2C receptor.

[4] = Test Ex. 3, test material 10 μmol/L, 100% = 10 μmol/L 5-HT, −100% = 10 μmol/L SB206553, below 0% = inverse agonistic action

Row | Molecule | 5-HT2C receptor agonistic action [3] [%] | other results
1 | CNCc1cc(OCc2cc(Cl)ccc2F)n(CC2CCCCO2)n1 (single isomer, unassigned; (+)) [Example 475, (+)-1-{5-[(5-chloro-2-fluorobenzyl)oxy]-1-(tetrahydro-2H-pyran-2-ylmethyl)-1H-pyrazol-3-yl}-N-methylmethanamine] | −95 | Ki [1]: 9.2 nM; Ki [2]: 19 nM
2 | CNC(C)c1cc(OCc2cc(F)ccc2F)n(CCC2CCCC2)n1 (single isomer, unassigned; (+)) [Example 477, (+)-1-{1-(2-cyclopentylethyl)-5-[(2,5-difluorobenzyl)-oxy]-1H-pyrazol-3-yl}-N-methylethanamine] | – | 5-HT2C receptor agonistic action [3, 4]: −94%
3 | CNCc1cc(OCc2cc(Cl)ccc2F)n(CC2CCCCO2)n1 (single isomer, unassigned; (-)) [Example 474, (−)-1-{5-[(5-chloro-2-fluorobenzyl)oxy]-1-(tetrahydro-2H-pyran-2-ylmethyl)-1H-pyrazol-3-yl}-N-methylmethanamine] | −111 | Ki [1]: 11 nM; Ki [2]: 16 nM
4 | CNC(C)c1cc(OCc2cc(F)ccc2F)n(CCC2CCCC2)n1 (single isomer, unassigned; (-)) [Example 476, (−)-1-{1-(2-cyclopentylethyl)-5-[(2,5-difluorobenzyl)-oxy]-1H-pyrazol-3-yl}-N-methylethanamine] | – | 5-HT2C receptor agonistic action [3, 4]: −72%
5 | CNCc1cc(OCc2cccc(OC)c2)n(CC2CCCCC2)n1 [Compound 42] | −106 | –
6 | CNCc1cc(OCc2ccc(F)cc2C)n(CC2CCCCO2)n1 (stereo not drawn) [Compound 108] | −117 | –
7 | CNCc1cc(OCc2cc(Cl)ccc2F)n(CCC(C)OC)n1 (stereo not drawn) [Compound 405] | −90 | –
8 | CNCc1cc(OCc2cc(Cl)ccc2F)n(CC2(OC)CCCCC2)n1 [Compound 434] | −87 | –
9 | CNCc1cc(OCc2ccccc2)n(CCCc2ccccc2)n1 [Example 3, 1-[5-(Benzyloxy)-1-(3-phenylpropyl)-1H-pyrazol-3-yl]-N-methylmethanamine] | −91 | –
10 | CNCc1cc(OCc2ccccc2)n(CC2CCCCC2)n1 [Example 5, 1-[5-(Benzyloxy)-1-(cyclohexylmethyl)-1H-pyrazol-3-yl]-N-methylmethanamine] | −91 | –
11 | CNCc1cc(OCc2ccc(F)cc2F)n(CC2CCCC2)n1 [Example 144, 1-{1-(cyclopentylmethyl)-5-[(2,4-difluorobenzyl)oxy]-1H-pyrazol-3-yl}-N-methylmethanamine] | −127 | –
12 | CNCc1cc(OCc2ccccc2F)n(Cc2ccc(F)cc2)n1 [Example 218, 1-{1-(4-fluorobenzyl)-5-[(2-fluorobenzyl)oxy]-1H-pyrazol-3-yl}-N-methylmethanamine] | −111 | –
13 | CCC(CC)n1nc(CNC)cc1OCc1ccc(F)cc1Cl [Example 253] | – | 5-HT2C receptor agonistic action [3, 4]: −86%
14 | CNCc1cc(OCc2cc(Cl)ccc2F)n(CC(C)C)n1 [Example 256, 1-{5-[(5-chloro-2-fluorobenzyl)oxy]-1-(2-methylpropyl)-1H-pyrazol-3-yl}-N-methylmethanamine] | – | 5-HT2C receptor agonistic action [3, 4]: −97%
15 | CNCc1cc(OCc2cc(Cl)ccc2F)n(CC(C)(C)C)n1 [Example 259, 1-{5-[(5-chloro-2-fluorobenzyl)oxy]-1-(2,2-dimethylpropyl)-1H-pyrazol-3-yl}-N-methylmethanamine] | – | 5-HT2C receptor agonistic action [3, 4]: −119%
16 | CNCc1cc(OCc2cc(F)ccc2F)n(CCC(C)(C)C)n1 [Example 266, 1-{5-[(2,5-difluorobenzyl)oxy]-1-(3,3-dimethylbutyl)-1H-pyrazol-3-yl}-N-methylmethanamine] | – | 5-HT2C receptor agonistic action [3, 4]: −86%

Row | Molecule | 5-HT2C receptor agonistic action [3] [%] | other results
17 | CNCc1cc(OCc2cc(Cl)ccc2F)n(CCC(C)(C)OC)n1 [Example 275, 1-{5-[(5-chloro-2-fluorobenzyl)oxy]-1-(3-methoxy-3-methylbutyl)-1H-pyrazol-3-yl}-N-methylmethanamine] | −88 | –
18 | CNCc1cc(OCc2ccccc2)n(C(C)C2CCCC2)n1.Cl (stereo not drawn) [Example 288, 1-[5-(Benzyloxy)-1-(1-cyclopentylethyl)-1H-pyrazol-3-yl]-N-methylmethanamine Hydrochloride] | −80 | –
19 | CNC(C)c1cc(OCc2cc(F)ccc2F)n(CCC2CCCC2)n1 (stereo not drawn) [Example 315, 1-{1-(2-cyclopentylethyl)-5-[(2,5-difluorobenzyl)oxy]-1H-pyrazol-3-yl}-N-methylethanamine] | – | 5-HT2C receptor agonistic action [3, 4]: −84%
20 | CNCc1cc(OCc2ccccc2)n(C(CO)C2CCCCC2)n1.Cl (stereo not drawn) [Example 328, 2-{5-(Benzyloxy)-3-[(methylamino)methyl]-1H-pyrazol-1-yl}-2-cyclohexyl-ethanol Hydrochloride] | −116 | –
21 | CNCc1cc(OCc2ccccc2)n(C(CF)C2CCCCC2)n1.Cl (stereo not drawn) [Example 330, 1-[5-(Benzyloxy)-1-(1-cyclohexyl-2-fluoroethyl)-1H-pyrazol-3-yl]-N-methylmethanamine Hydrochloride] | −82 | –
22 | CNCc1cc(OCc2cccc(Cl)c2)n(CC2CCc3ccccc3O2)n1.Cl (stereo not drawn) [Example 341, 1-{5-[(3-Chlorobenzyl)oxy]-1-(3,4-dihydro-2H-chromen-2-yl-methyl)-1H-pyrazol-3-yl}-N-methylmethanamine Hydrochloride] | −71 | –
23 | CCNCc1cc(OCc2cc(F)ccc2F)n(CC2CCCCC2)n1 [Example 344, N-({1-(Cyclohexylmethyl)-5-[(2,5-difluorobenzyl)oxy]-1H-pyrazol-3-yl}methyl)ethanamine] | −82 | –
24 | Cl.NCc1cc(OCc2cc(F)ccc2F)n(CC2CCCC2)n1 [Example 347, 1-{1-(Cyclopentylmethyl)-5-[(2,5-difluorobenzyl)oxy]-1H-pyrazol-3-yl}methanamine Hydrochloride] | −114 | –
25 | CNCc1cc(OC(F)(F)c2ccccc2)n(CC2CCCCC2)n1.Cl [Example 349, 1-{1-(Cyclohexylmethyl)-5-[difluoro(phenyl)methoxy]-1H-pyrazol-3-yl}-N-methylmethanamine Hydrochloride] | −82 | –
26 | CNCc1cc(OC(C)c2cccc(Cl)c2)n(CC2CCCCC2)n1.Cl (stereo not drawn) [Example 350, 1-{5-[1-(3-Chlorophenyl)ethoxy]-1-(cyclohexylmethyl)-1H-pyrazol-3-yl}-N-methylmethanamine Hydrochloride] | −92 | –
27 | CNCc1cc(SCc2ccccc2)n(Cc2ccccc2)n1.Cl [Example 355, 1-[1-Benzyl-5-(benzylsulfanyl)-1H-pyrazol-3-yl]-N-methylmethanamine Hydrochloride] | −72 | –
28 | CNCc1cc(OCc2cc(F)c(F)cc2F)n(CCC2CC2)n1 [Example 426] | −99 | –
29 | CNCc1cc(OCc2cc(Cl)ccc2F)n(CCC2(O)CCCC2)n1.Cl [Example 435, 1-(2-{5-[(5-Chloro-2-fluorobenzyl)oxy]-3-[(methylamino)-methyl]-1H-pyrazol-1-yl}ethyl)cyclopentanol Hydrochloride] | −125 | –
30 | CNCc1cc(OCc2cc(F)ccc2F)n(CCC(C)(C)F)n1.Cl [Example 481, 1-{5-[(2,5-Difluorobenzyl)oxy]-1-(3-fluoro-3-methylbutyl)-1H-pyrazol-3-yl}-N-methylmethanamine Hydrochloride] | −109 | –
31 | CNCc1cc(OCc2cc(Cl)ccc2F)n(CCC(C)(C)F)n1.Cl [Example 482, 1-{5-[(5-Chloro-2-fluorobenzyl)oxy]-1-(3-fluoro-3-methylbutyl)-1H-pyrazol-3-yl}-N-methylmethanamine Hydrochloride] | −116 | –
32 | N-Benzyl-1-(cyclohexylmethyl)-3-[(methyl]-1H-pyrazol-5-amine Dihydrochloride [Example 357] | −120 | –
